Source: ChEMBL document CHEMBL4342484, “Structure-Activity Relationship for the Oxadiazole Class of Antibacterials” (ACS Med Chem Lett, 2020)
In brackets after ≈: the same amount, converted by molar mass.

Key:
Staphylococcus aureus [1] = experiment: Antibacterial activity against Staphylococcus aureus ATCC 29213 by broth microdilution method; format: functional
Staphylococcus aureus [2] = experiment: Antibacterial activity against vancomycin-resistant Staphylococcus aureus VRS2 clinical isolate by broth microdilution method; format: functional
[3] = Drug level in mouse thigh infected with linezolid-resistant Staphylococcus aureus NRS119 at 40 mg/kg, po administered 1 hrs post infection and measured for 48 hrs; format: ADME, organism-based; conditions: read-out: Drug uptake
[4] = test system: Staphylococcus epidermidis; experiment: Antibacterial activity against Staphylococcus epidermidis ATCC 35547 by broth microdilution method; format: functional
Bacillus cereus = experiment: Antibacterial activity against Bacillus cereus ATCC 13061 by broth microdilution method; format: functional
Staphylococcus aureus [5] = experiment: Antibacterial activity against Staphylococcus aureus NRS100 (COL) by broth microdilution method; format: functional
Enterococcus faecium [6] = experiment: Antibacterial activity against vancomycin-resistant Enterococcus faecium 106 clinical isolate by broth microdilution method; format: functional
Staphylococcus aureus [7] = experiment: Antibacterial activity against Staphylococcus aureus NRS120 by broth microdilution method; format: functional
[8] = Drug level in mouse thigh infected with linezolid-sensitive Staphylococcus aureus NRS70 at 40 mg/kg, po administered 1 hrs post infection and measured for 48 hrs; format: ADME, organism-based; conditions: read-out: Drug uptake
Enterococcus faecium [9] = experiment: Antibacterial activity against Enterococcus faecium NCTC 7171 by broth microdilution method; format: functional
Enterococcus faecium [10] = experiment: Antibacterial activity against vancomycin-susceptible Enterococcus faecium 119-39A clinical isolate by broth microdilution method; format: functional
Enterococcus faecalis [11] = experiment: Antibacterial activity against vancomycin-susceptible Enterococcus faecalis 201 clinical isolate by broth microdilution method; format: functional
Staphylococcus aureus [12] = experiment: Antibacterial activity against vancomycin-resistant Staphylococcus aureus VRS1 clinical isolate by broth microdilution method; format: functional
Staphylococcus aureus [13] = experiment: Antibacterial activity against Staphylococcus aureus ATCC 27660 by broth microdilution method; format: functional
[14] = test system: Staphylococcus haemolyticus; experiment: Antibacterial activity against Staphylococcus haemolyticus ATCC 29970 by broth microdilution method; format: functional
Enterococcus faecalis [15] = experiment: Antibacterial activity against Enterococcus faecalis ATCC 29212 by broth microdilution method; format: functional
Staphylococcus aureus [16] = experiment: Antibacterial activity against Staphylococcus aureus N315 (NRS70) by broth microdilution method; format: functional
Staphylococcus aureus [17] = experiment: Antibacterial activity against Staphylococcus aureus NRS119 by broth microdilution method; format: functional
Bacillus licheniformis = experiment: Antibacterial activity against Bacillus licheniformis ATCC 12759 by broth microdilution method; format: functional
Enterococcus faecalis [18] = experiment: Antibacterial activity against vancomycin-resistant Enterococcus faecalis 99 clinical isolate by broth microdilution method; format: functional
HepG2 = experiment: Cytotoxicity against human HepG2 cells assessed as reduction in cell viability by XTT assay; format: cell-based
[19] = Plasma protein binding in human at […] incubated for 2 hrs by UPLC analysis; format: ADME, cell-free; conditions: read-out: PPB (converted)
[20] = Hemolytic activity in human RBC relative to control; format: ADME, cell-based, Erythrocyte; conditions: red blood cells (erythrocytes), read-out: Activity

SMILES | MIC (Staphylococcus aureus [1]) [µg/mL] | other results
Clc1c[nH]nc1-c1nc(-c2ccc(OC3CN4CCC3CC4)cc2)no1 (centres undefined) | 128 (≈ 344 µM) | 
Oc1ccc(-c2nc(-c3ccc4oc5ccc(F)cc5c4c3)no2)cc1 | ≥ 128 | 
Oc1ccc(-c2nc(-c3ccc4oc5ccccc5c4c3)no2)cc1 | ≥ 128 | 
Oc1ccc(-c2noc(-c3ccc(O)cc3)n2)cc1 | ≥ 128 | 
COc1ccc(-c2noc(-c3ccc(O)cc3)n2)cc1 | 32 (≈ 119 µM) | 
[N-]=[N+]=Nc1cccc(Oc2ccc(-c3noc(-c4ccc(O)cc4)n3)cc2)c1 | 2 (≈ 5.39 µM) | 
Clc1c[nH]nc1-c1nc(-c2ccc(OC3CCCC3)cc2)no1 | ≥ 128 | 
FC(F)(F)Oc1ccc(-c2noc(-c3ccc4[nH]ccc4c3)n2)cc1 | ≥ 128 | 
Oc1ccc(-c2nc(-c3ccc4c(c3)Oc3ccccc3O4)no2)cc1 | ≥ 128 | 
FC(F)(F)c1ccc(Oc2ccc(-c3noc(-c4ccc5[nH]ccc5c4)n3)cc2)cc1 | 2 to 4 (≈ 4.75 to 9.49 µM) | MIC (Staphylococcus aureus [2]): 2 µg/mL (≈ 4.75 µM); concentration at 48 h [3]: 6000 ng/g; MIC [4]: 2 µg/mL (≈ 4.75 µM); MIC (Bacillus cereus): 16 µg/mL (≈ 38 µM); MIC (Staphylococcus aureus [5]): 2 µg/mL (≈ 4.75 µM); MIC (Enterococcus faecium [6]): 2 µg/mL (≈ 4.75 µM); MIC (Staphylococcus aureus [7]): 2 µg/mL (≈ 4.75 µM); concentration at 48 h [8]: 7600 ng/g; MIC (Enterococcus faecium [9]): 2 µg/mL (≈ 4.75 µM); MIC (Enterococcus faecium [10]): 1 µg/mL (≈ 2.37 µM); MIC (Enterococcus faecalis [11]): 4 µg/mL (≈ 9.49 µM); MIC (Staphylococcus aureus [12]): 2 µg/mL (≈ 4.75 µM); MIC (Staphylococcus aureus [13]): 4 µg/mL (≈ 9.49 µM); MIC [14]: 4 to 8 µg/mL (≈ 9.49 to 19 µM); MIC (Enterococcus faecalis [15]): 8 µg/mL (≈ 19 µM); MIC (Staphylococcus aureus [16]): 2 µg/mL (≈ 4.75 µM); MIC (Staphylococcus aureus [17]): 2 µg/mL (≈ 4.75 µM); MIC (Bacillus licheniformis): 8 µg/mL (≈ 19 µM); MIC (Enterococcus faecalis [18]): 4 µg/mL (≈ 9.49 µM)
O=[N+]([O-])c1ccccc1Oc1ccc(-c2noc(-c3ccc(O)cc3)n2)cc1 | 4 (≈ 10.7 µM) | 
Oc1ccc(-c2nc(-c3ccc(Oc4cccc(I)c4)cc3)no2)cc1 | 4 (≈ 8.77 µM) | 
CC(C)S(=O)(=O)Oc1ccc(-c2noc(-c3ccc(O)cc3)n2)cc1 | ≥ 128 | 
FC(F)(F)Oc1ccc2oc3ccc(-c4noc(-c5n[nH]cc5Cl)n4)cc3c2c1 | > 128 | 
CC(=O)N1CCC(Oc2ccc(-c3noc(-c4ccc(O)cc4)n3)cc2)CC1 | ≥ 128 | 
Cl.NCCCOc1ccc(-c2noc(-c3ccc(O)cc3)n2)cc1 | 16 | 
CC(C)(C)OC(=O)N1CCC(Oc2ccc(-c3noc(-c4n[nH]cc4Cl)n3)cc2)CC1 | ≥ 128 | 
Clc1c[nH]nc1-c1nc(-c2ccc(OC3CCNCC3)cc2)no1 | ≥ 128 | 
Oc1ccc(-c2nc(-c3ccc(OC4CCNCC4)cc3)no2)cc1 | 16 (≈ 47.4 µM) | 

SMILES | MIC (Staphylococcus aureus [1]) [µg/mL] | other results
NC(=O)c1ccccc1Oc1ccc(-c2noc(-c3ccc(O)cc3)n2)cc1 | ≥ 128 | 
Oc1ccc(-c2nc(-c3ccc(OC4CN5CCC4CC5)cc3)no2)cc1 (centres undefined) | 64 (≈ 176 µM) | 
O=C(O)c1ccccc1Oc1ccc(-c2noc(-c3ccc(O)cc3)n2)cc1 | > 128 | 
Cc1nc2cc(Oc3ccc(-c4noc(-c5n[nH]cc5Cl)n4)cc3)ccc2s1 | 16 (≈ 39 µM) | 
Fc1ccc(Oc2ccc(-c3noc(-c4n[nH]cc4Cl)n3)cc2)cc1Cl | 2 (≈ 5.11 µM) | IC50 (HepG2): 21 µg/mL (≈ 53.7 µM); fraction unbound at 2 h [19]: 0.088; hemolysis [20]: 2.9%
Oc1ccc(-c2nc(-c3ccc(OC4CNC4)cc3)no2)cc1 | 64 (≈ 207 µM) | 
CS(=O)(=O)c1ccc(Oc2ccc(-c3noc(-c4n[nH]cc4Cl)n3)cc2)cc1 | 128 (≈ 307 µM) | 
[N-]=[N+]=Nc1ccc(Oc2ccc(-c3noc(-c4ccc(O)cc4)n3)cc2)cc1 | 2 (≈ 5.39 µM) | 
Oc1ccc(-c2nc(-c3ccc(OC4CCCNC4)cc3)no2)cc1 (centres undefined) | 64 (≈ 190 µM) | 
Oc1ccc(-c2nc(-c3ccc(Oc4ccc(CBr)cc4)cc3)no2)cc1 | ≥ 128 | 
CN1[C@@H]2CC[C@@H]1CC(Oc1ccc(-c3noc(-c4n[nH]cc4Cl)n3)cc1)C2 (some centres undefined) | 64 (≈ 166 µM) | 
O=C(O)c1cccc(Oc2ccc(-c3noc(-c4ccc(O)cc4)n3)cc2)c1 | 64 (≈ 171 µM) | 
OCc1ccccc1Oc1ccc(-c2noc(-c3ccc(O)cc3)n2)cc1 | ≥ 128 | 
N#Cc1ccc(Oc2ccc(-c3noc(-c4ccc(O)cc4)n3)cc2)cc1 | ≥ 128 | 
Oc1ccc(-c2nc(-c3ccc(OC4CCOC4)cc3)no2)cc1 (centres undefined) | ≥ 128 | 
CC(C)(C)OC(=O)NCCCOc1ccc(-c2noc(-c3ccc(O)cc3)n2)cc1 | ≥ 128 | 
CC(C)(C)OC(=O)N1CCC(Oc2ccc(-c3noc(-c4n[nH]cc4Cl)n3)cc2)C1 (centres undefined) | ≥ 128 | 
Oc1ccc(-c2nc(-c3ccc(Oc4ccc(Br)cc4)cc3)no2)cc1 | 2 (≈ 4.89 µM) | 
